These results are taken from patent US4716153A, “Stable oral preparation of macrolide antibiotics and method for stabilizing the same” (priority 1982, dated 1987).

Structures are written as SMILES.

A short description of data set [1]: Elution rate of TMS-19-Q with glycine and citric or tartaric acid in diluted physiological saline solution. The format is physicochemical. The conditions noted are these: for elution rate with 40 mg or more of citric acid: citric acid 40 mg or more, saline + water. The procedure:
To 40 ml of physiological saline solution 120 ml of water was added, and after the solution was placed in a vessel whose temperature was kept constant in a thermostat at 37° C., 200 mg of TMS-19-Q, 340 mg of glycine and 0-80 mg of citric acid were added, and the mixture was stirred by a magnetic stirrer. Then sampling thereof was conducted in a lapse of time (at 5 minutes, 15 minutes and 30 minutes) to observe absorbance (wavelength: 232 nm) and elution rate was calculated.
To 40 ml of physiological saline solution 120 ml of water was added, and after the solution was kept in a vessel whose temperature was kept constant in a thermostat controlled at 37° C., 200 mg of TMS-19-Q, 340 mg of glycine and 0-80 mg of tartaric acid were added, and the same procedures as those of Example 27 were followed to examine the elution rate of TMS-19-Q.

The nature of data set [2]: Stability in Japan Pharmacopoeia 1st solution (pH 1.2) at 37° C., with or without stabilizer (TLC densitometry, 232 nm). The format is physicochemical. The source says: The stabilizers showing pH 3-10 used in the invention may be substances having a buffering or antacid action and showing pH 3-10, preferably 5.5-6.5. These are, for example, neutral amino acids or their basic salts, basic salts of acidic amino acids, basic amino acids,basic salts of organic carboxylic acids,basic salts of polybasic organic carboxylic acids, basic salts of uronic acid or inorganic salt antacids. The neutral amino acids or basic salts thereof include glycine, alanine, aminobutyric acid, proline, leucine, isoleucine, methionine, threonine, serine, valine, or their aluminium salts, for example aluminium glycinate. Among these, glycine, alanine and aluminium glycinate, both of which show pH 5.5-6.5, are preferable. The basic salts of acidic amino acid include monobasic salts such as a monosodium, monopotassium or magnesium salt of glutaminic or aspartic acid. Among these monobasic salts, monosodium glutamate or monosodium aspartate is preferable. The basic amino acids include arginine, glutamine, asparagine, citrulin, tryptophane and histidine. Especially, histidine is preferable. The basic salts of monobasic organic carboxylic acid include basic salts such as sodium, potassium, magnesium or aluminium salts of saturated monobasic organic carboxylic acids such as acetic acid and propionic acid, of unsaturated monobasic organic acids such as acrylic acid, crotonic acid and vinylacetic acid, and of other monobasic organic acids such as lactic acid, pyruvic acid, glyceric acid and acetoacetic acid. The basic salts of polybasic organic carboxylic acid include mono-, di- or tri-sodium, potassium, magnesium, calcium or aluminium salts of saturated polybasic organic carboxylic acids such as oxalic acid, malonic acid, succinic acid, glutaric acid, adipic acid and pimelic acid, of unsaturated polybasic organic carboxylic acids such as maleic acid and fumaric acid, and of other polybasic organic carboxylic acids such as meso-oxalic acid, malic acid, oxalacetic acid and citric acid. Among these, trisodium citrate is preferable. The basic salts of uric acids include sodium salts of glucuronic acid, galacturonic acid or their polymers such as alginic acid or peptic acid and dihydroxyaluminium aminoacetate sodium alginate. The inorganic salt antacids include calcium hydrogenphosphate, disodium hydrogenphosphate, dipotassium hydrogenphosphate, magnesium hydrogenphosphate, calcium carbonate, sodium carbonate, potassium carbonate, sodium hydrogen carbonate, aluminium carbonate, magnesium carbonate, potassium metasilicate, magnesium aluminate metasilicate, sodium metasilicate, synthetic aluminium silicate, magnesium silicate, aluminium silicate, magnesium aluminate silicate, magnesium-bismuth aluminate silicate, magnesium oxide, alumina-magnesium hydroxide, magnesium peroxide, magnesium hydroxide, aluminium hydroxide, synthetic hydrotarphite, aluminium phosphate and others. Especially, calcium phosphate and magnesium phosphate are preferable. Each of these stabilizers may be used alone or in the form of a mixture. […] A method for stabilization of 16-membered ring macrolide antibiotics of the present invention will be described in detail. The afore-mentioned various 16-membered ring macrolide antibiotics, for example 9-hydroxy 16-membered ring macrolides such as midecamycin, 3"-propionylleucomycin A5 and josamycin and 9-acyloxy 16-membered ring macrolides such as 9,3"-diacetylmidecamycin and 9-propionyljosamycin show extremely poor residual rates when added to an acidic solution of the Japanese Pharmacopoeia lst liquid (pH 1.2) and allowed to stand. That is, the 9hydroxy 16-membered ring maclorides decompose in a short time to by-produce their iso, demycarosyl and/or isodemycarosyl forms. The 9-acyloxy 16-membered ring macrolides decompose, too, to by-produce their 9-deacyl, 9-deacyl-iso, demycarosyl, 9-deacyl-demycarosyl or 9-deacyl-iso-demycarosyl forms. […]

Consider `CCCC(=O)OC1C(C)OC(OC2C(C)OC(OC3C(CC=O)CC(C)C(O)/C=C/C=C/CC(C)OC(=O)CC(O)C3OC)C(O)C2N(C)C)CC1(C)OC(=O)CC` (stereo not shown) [TMS-19-Q, 3"-propionyl leucomycin A5], for which the “elution rate with 0, 10 or 20 mg of citric acid” value in data set [1] (200 mg potency, 340 mg glycine, pH 5.87, 5.51, 5.18) is “less than 60%”. Further, in data set [1] (340 mg glycine, citric acid 20 mg or 10 mg, after 15-minute stirring), the “elution rate with 20 mg or 10 mg of citric acid” value was 45-55%. In addition, the “elution rate with 40 mg or more of citric acid” value is no less than 95% in data set [1] (340 mg glycine) and “more than 95%” in data set [1] (340 mg glycine, listed as 3"-propionylleucomycin A5). The “elution rate with 0 mg of citric acid” value in data set [1] (340 mg glycine, no citric acid, after 15-minute stirring) is reported as 10%. Also, the “elution rate with 0 mg of tartaric acid” value in data set [1] (340 mg glycine, no tartaric acid, after 15-minute stirring) came to 10%. In addition, the “elution rate with 20 mg or 10 mg of tartaric acid” value in data set [1] (340 mg glycine, tartaric acid 20 mg or 10 mg, after 15-minute stirring) was 40-55%. Besides, the “elution rate with 40 mg or more of tartaric acid” value in data set [1] (340 mg glycine, tartaric acid 40 mg or more, value at 15 minutes) is no less than 95%. For the same compound, the “time within which elution was nearly completed (citric acid)” value in data set [1] (citric acid, solutions whose pH is equal to or less than 4.23) was no more than 15 min. Further, the “time within which elution was nearly completed (tartaric acid)” value in data set [1] (tartaric acid, solutions whose pH is equal to or less than 4.09) is no more than 15 min. Further, the “improvement of stability compared with control, 30 minutes” value in data set [2] (150 mg of glycine, value at 30 minutes) stood at 30%. The “stability in 1st solution (in words)” value in data set [2] (1st solution pH 1.2, no stabilizer) is listed as “extremely unstable”. The “stability with tri-sodium citrate (in words)” value in data set [2] (150-300 mg of tri-sodium citrate, 1st solution) is on record as “very much enhanced”. Also, the “stability with calcium phosphate (in words)” value in data set [2] (150-400 mg of calcium phosphate, 1st solution) is recorded as “very much enhanced”. Also, the “stability with glycine (in words)” value in data set [2] (150-900 mg of glycine, 1st solution) is “stabilized well”. For the same compound, the “stability with L-aspartic acid monosodium salt (in words)” value in data set [2] (200-500 mg of Asp.Na, 1st solution) is given as “very much enhanced”. Moreover, the “stability with monosodium glutamate (in words)” value in data set [2] (200-500 mg of Glu.Na, 1st solution) was “very much enhanced”. Besides, the degraded at 0.5 h in data set [2] (jp 1st solution, 1st solution pH 1.2, 37° C., 30 minutes, no stabilizer, read-out: decomposites (balance), 30 minutes) stood at 39.5%. Besides, the remaining at 0.5 h in data set [2] (jp 1st solution, 1st solution pH 1.2, 37° C., 30 minutes, no stabilizer, read-out: residual amount after contact with 1st solution, 30 minutes) stood at 60.5%. For the same compound, in data set [2] (jp 1st solution, 1st solution pH 1.2, 37° C., 60 minutes, no stabilizer, read-out: decomposites (balance), 60 minutes), the degraded at 1 h was determined as 41.4%. For the same compound, in data set [2] (jp 1st solution, 1st solution pH 1.2, 37° C., 60 minutes, no stabilizer, read-out: residual amount after contact with 1st solution, 60 minutes), the remaining at 1 h amounted to 58.6%. Also, the “stability with a larger amount of glycine (in words)” value in data set [2] (larger amount of glycine (up to 900 mg)) is recorded as “hardly decomposed”.
